Measurements as given in patent publication US12459951B2, “Compounds that interact with RAS superfamily proteins for treatment of cancers, inflammatory diseases, rasopathies, and fibrotic disease” (SHY Therapeutics, LLC, priority 2022, dated 2025).

Tests used:
Erk1/2 phosphorylation = assay: Erk1/2 Phosphorylation Assay (western blot), Panc-1; type: cell-based, human; conditions: at 10 μM, * = activation
Procedure, shortened: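 Phospho-Erk1/2 (Thr202/Tyr204) was detected by western blot in lysates of Panc-1 cells (KRas G12D). These had 6 h, 37° C exposure to 10 μM compound or a dilution series for IC50, in 0.3% DMSO. Cells were either starved overnight in 0.5% FBS with a 15-min 1.5 ng/ml EGF pulse, or kept unstimulated in 10% FBS.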

TNF-alpha = TNF-alpha Quantification Assay (ELISA), LPS-stimulated RAW 264.7; type: cell-based; conditions: Mus musculus, RAW264.7; at 10 μM; read-out: TNFα: % inh.
KRas G12C mutant = assay: Ras GTP Binding Domain Inhibition Assay (Ras Superfamily Assay); conditions: 20 μM compound; for KRas G12C mutant + SOS: % inh.: with SOS; for KRas G12C mutant: % inh.: without SOS
Procedure, shortened: (§1)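 Ni-plate capture of His-tagged protein (10-30 μg/mL, o/n 4° C); cpd 20 μM or dilution series, 1% DMSO, 3 h RT ± Sos 556-1049 last h; 100 nM Cy-labelled GTP 45 min RT; 3× wash; fluorescence read.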

Rac-1 = target: T1, Rac-1 (Homo sapiens, UniProt P63000); assay: as above; conditions: read-out: Rac-1: % inh.
T1 construct: made in house
Procedure, shortened: as §1

Rho-A = target: T2, Rho-A (Homo sapiens, UniProt P61586); assay: as above; conditions: read-out: Rho-A: % inh..
T2 construct: made in house
T2 sequence (P61586 whole entry): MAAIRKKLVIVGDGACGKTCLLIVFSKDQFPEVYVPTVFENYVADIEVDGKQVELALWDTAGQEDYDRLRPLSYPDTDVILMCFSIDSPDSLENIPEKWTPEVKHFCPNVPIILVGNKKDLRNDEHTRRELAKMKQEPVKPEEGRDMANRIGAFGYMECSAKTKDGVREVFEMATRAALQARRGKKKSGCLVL
Procedure, shortened: as §1

KRas G12D mutant = assay: as above; conditions: 20 μM compound; for KRas G12D mutant + SOS: % inh.: with SOS; for KRas G12D mutant: % inh.: without SOS
Procedure, shortened: as §1

KRas wild type = assay: as above; conditions: 20 μM compound; for KRas wild type + SOS: % inh.: with SOS; for KRas wild type: % inh.: without SOS
Procedure, shortened: as §1

KRas Q61H mutant = assay: as above; conditions: 20 μM compound; for KRas Q61H mutant + SOS: % inh.: with SOS; for KRas Q61H mutant: % inh.: without SOS
Procedure, shortened: as §1

| KRas G12C mutant + SOS: % inh. (KRas G12C mutant) | KRas G12C mutant: % inh. (KRas G12C mutant) | inhibition at 20 µM (Rac-1) | inhibition at 20 µM (Rho-A) | KRas G12D mutant + SOS: % inh. (KRas G12D mutant) | KRas G12D mutant: % inh. (KRas G12D mutant) | KRas wild type + SOS: % inh. (KRas wild type) | KRas wild type: % inh. (KRas wild type) | KRas Q61H mutant + SOS: % inh. (KRas Q61H mutant) | KRas Q61H mutant: % inh. (KRas Q61H mutant) | SMILES | % inh of Erk1/2 phosphorylation in Panc-1 (Erk1/2 phosphorylation) | inhibition at 10 µM (TNF-alpha) |
| --- | --- | --- | --- | --- | --- | --- | --- | --- | --- | --- | --- | --- |
| 0 (0 = 0% inhibition) | 0 (0 = 0% inhibition) | 1 to 25% | 1 to 25% | 0 (0 = 0% inhibition) | 0 (0 = 0% inhibition) | A (A = 1-25% inhibition) | A (A = 1-25% inhibition) | 0 (0 = 0% inhibition) | A (A = 1-25% inhibition) | COC1CCCN(c2nc(-c3ccccn3)nn3cc(-c4ccn(C(C)C)n4)c(-c4ccccc4)c23)C1 (racemic) [Compound 27, rac 6-(1-Isopropyl-1H-pyrazol-3-yl)-4-(3-methoxypiperidin-1-yl)-5-phenyl-2-(pyridin-2-yl)pyrrolo[2,1-f][1,2,4]triazine] | 0 (0% inhibition) | 25 to 49% |
| A (A = 1-25% inhibition) | B (B = 26-49% inhibition) | 50 to 75% | 26 to 49% | A (A = 1-25% inhibition) | B (B = 26-49% inhibition) | A (A = 1-25% inhibition) | A (A = 1-25% inhibition) | D (D = 76-100% inhibition) | D (D = 76-100% inhibition) | COc1cccc(-c2cn3nc(-c4nccn4C)nc(N[C@@H]4CC[C@@H](OC)C4)c3c2-c2ccccn2)c1F (racemic) [Compound 46, rac 6-(2-Fluoro-3-methoxyphenyl)-N-((1R,3R)-3-methoxycyclopentyl)-2-(1-methyl-1H-imidazol-2-yl)-5-(pyridin-2-yl)pyrrolo[2,1-f][1,2,4]triazin-4-amine] | 0 (0% inhibition) | 75 to 100% |
| A (A = 1-25% inhibition) | 0 (0 = 0% inhibition) | 0% | 1 to 25% | A (A = 1-25% inhibition) | 0 (0 = 0% inhibition) | 0 (0 = 0% inhibition) | A (A = 1-25% inhibition) | 0 (0 = 0% inhibition) | 0 (0 = 0% inhibition) | COCCNc1nc(-c2nccn2C)nn2cc(-c3cccc(OC)c3Cl)c(-c3ccccc3)c12 [Compound 29, 6-(2-Chloro-3-methoxyphenyl)-N-(2-methoxyethyl)-2-(1-methyl-1H-imidazol-2-yl)-5-phenylpyrrolo[2,1-f][1,2,4]triazin-4-amine] | D (85-100% inhibition) | 75 to 100% |

The remaining lines, values behind:

| SMILES | KRas G12C mutant + SOS: % inh. (KRas G12C mutant) | KRas G12C mutant: % inh. (KRas G12C mutant) | inhibition at 20 µM (Rac-1) | inhibition at 20 µM (Rho-A) | KRas G12D mutant + SOS: % inh. (KRas G12D mutant) | KRas G12D mutant: % inh. (KRas G12D mutant) | KRas wild type + SOS: % inh. (KRas wild type) | KRas wild type: % inh. (KRas wild type) | KRas Q61H mutant + SOS: % inh. (KRas Q61H mutant) | KRas Q61H mutant: % inh. (KRas Q61H mutant) | % inh of Erk1/2 phosphorylation in Panc-1 (Erk1/2 phosphorylation) | inhibition at 10 µM (TNF-alpha) |
| --- | --- | --- | --- | --- | --- | --- | --- | --- | --- | --- | --- | --- |
| COc1cccc(-c2cn3nc(-c4nccn4C)nc(N[C@@H]4CC[C@H](OC)C4)c3c2-c2ccccc2)c1Cl (racemic) [Compound 33, rac 6-(2-Chloro-3-methoxyphenyl)-N-((1R,3S)-3-methoxycyclopentyl)-2-(1-methyl-1H-imidazol-2-yl)-5-phenylpyrrolo[2,1-f][1,2,4]triazin-4-amine] | 0 (0 = 0% inhibition) | A (A = 1-25% inhibition) | 0% | 1 to 25% | 0 (0 = 0% inhibition) | A (A = 1-25% inhibition) | 0 (0 = 0% inhibition) | A (A = 1-25% inhibition) | 0 (0 = 0% inhibition) | A (A = 1-25% inhibition) | D (85-100% inhibition) | 75 to 100% |
| CO[C@H]1CC[C@@H](Nc2nc(-c3nccn3C)nn3cc(-c4ccn(C(C)C)n4)c(C(C)C)c23)C1 (racemic) [Compound 36, rac 5-Isopropyl-6-(1-isopropyl-1H-pyrazol-3-yl)-N-((1R,3S)-3-methoxycyclopentyl)-2-(1-methyl-1H-imidazol-2-yl)pyrrolo[2,1-f][1,2,4]triazin-4-amine] | 0 (0 = 0% inhibition) | A (A = 1-25% inhibition) | 0% | 1 to 25% | A (A = 1-25% inhibition) | A (A = 1-25% inhibition) | A (A = 1-25% inhibition) | 0 (0 = 0% inhibition) | A (A = 1-25% inhibition) | A (A = 1-25% inhibition) | C (50-84% inhibition) | 1 to 24% |
| COc1cccc(-c2cn3nc(-c4nccn4C)nc(N[C@@H]4CC[C@@H](OC)C4)c3c2-c2ccccc2)c1F (racemic) [Compound 43, rac 6-(2-Fluoro-3-methoxyphenyl)-N-((1R,3R)-3-methoxycyclopentyl)-2-(1-methyl-1H-imidazol-2-yl)-5-phenylpyrrolo[2,1-f][1,2,4]triazin-4-amine] | 0 (0 = 0% inhibition) | 0 (0 = 0% inhibition) | 1 to 25% | 1 to 25% | 0 (0 = 0% inhibition) | A (A = 1-25% inhibition) | 0 (0 = 0% inhibition) | 0 (0 = 0% inhibition) | B (B = 26-49% inhibition) | B (B = 26-49% inhibition) | D (85-100% inhibition) | 1 to 24% |
| COc1cccc(Nc2nc(-c3nccn3C)nn3cc(-c4ccn(C(C)C)n4)c(-c4ccccc4)c23)n1 [Compound 23, 6-(1-Isopropyl-1H-pyrazol-3-yl)-N-(6-methoxypyridin-2-yl)-2-(1-methyl-1H-imidazol-2-yl)-5-phenylpyrrolo[2,1-f][1,2,4]triazin-4-amine] | 0 (0 = 0% inhibition) | A (A = 1-25% inhibition) | 1 to 25% | 1 to 25% | 0 (0 = 0% inhibition) | A (A = 1-25% inhibition) | A (A = 1-25% inhibition) | 0 (0 = 0% inhibition) | 0 (0 = 0% inhibition) | A (A = 1-25% inhibition) | D (85-100% inhibition) | 75 to 100% |
| COc1cccc(-c2cn3nc(-c4nccn4C)nc(O)c3c2-c2ccccc2)c1Cl [Compound 28, 6-(2-Chloro-3-methoxyphenyl)-2-(1-methyl-1H-imidazol-2-yl)-5-phenylpyrrolo[2,1-f][1,2,4]triazin-4-ol] | A (A = 1-25% inhibition) | A (A = 1-25% inhibition) | 26 to 49% | 1 to 25% | A (A = 1-25% inhibition) | A (A = 1-25% inhibition) | A (A = 1-25% inhibition) | A (A = 1-25% inhibition) | A (A = 1-25% inhibition) | A (A = 1-25% inhibition) | 0 (0% inhibition) | 1 to 24% |
